The source of these data is publication PMC12846815, “Structural basis for iterative methylation by a cobalamin-dependent radical S-adenosylmethionine enzyme in cystobactamids biosynthesis” (Proceedings of the National Academy of Sciences of the …, 2026).

The target of test [1] is T1, ccCysS (Corallococcus sp. CA054B, UniProt A0A3A8HCN5).
T1 construct: gene D7V80_23740; codon-optimised gene in pSUMO, N-terminal SUMO tag cleaved with Ulp1; E. coli BL21(DE3) with pDB1282 and pBAD42-BtuCEDFB; monomer; TLS groups span residues 5 to 704
T1 sequence (A0A3A8HCN5 1-645): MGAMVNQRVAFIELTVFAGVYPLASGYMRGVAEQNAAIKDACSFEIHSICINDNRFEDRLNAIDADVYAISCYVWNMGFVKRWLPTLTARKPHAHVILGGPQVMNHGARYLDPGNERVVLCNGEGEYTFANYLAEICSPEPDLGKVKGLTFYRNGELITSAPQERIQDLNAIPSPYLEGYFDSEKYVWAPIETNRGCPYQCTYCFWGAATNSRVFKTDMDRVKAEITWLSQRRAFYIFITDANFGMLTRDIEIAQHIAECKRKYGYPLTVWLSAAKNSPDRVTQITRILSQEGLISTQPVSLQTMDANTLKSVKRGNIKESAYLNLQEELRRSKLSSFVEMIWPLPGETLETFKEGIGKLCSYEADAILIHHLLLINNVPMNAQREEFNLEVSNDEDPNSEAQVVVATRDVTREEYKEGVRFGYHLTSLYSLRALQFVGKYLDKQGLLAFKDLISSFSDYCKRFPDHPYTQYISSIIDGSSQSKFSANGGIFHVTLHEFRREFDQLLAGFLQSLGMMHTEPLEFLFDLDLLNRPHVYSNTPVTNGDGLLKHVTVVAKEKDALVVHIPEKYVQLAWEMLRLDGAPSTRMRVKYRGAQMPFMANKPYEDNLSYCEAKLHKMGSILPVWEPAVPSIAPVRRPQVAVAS
Description: X-ray crystal structure, […] Å. The test is classed as binding. The note with it: active site, one conformer; with Met, 5′dA, Cbl and [Fe4S4]; anoxic, pH 6.0.

The target in test [2] is T1, ccCysS. Description: X-ray crystal structure, […] Å. The note with it: active site, two conformers; with Met, 5′dA, Cbl and [Fe4S4]; anoxic, pH 6.0. Format: binding.
Test [3] addresses T2, ccCysS (Corallococcus sp. CA054B, UniProt A0A3A8HCN5, W271A).
T2 construct: gene D7V80_23740; codon-optimised gene in pSUMO, N-terminal SUMO tag cleaved with Ulp1; E. coli BL21(DE3) with pDB1282 and pBAD42-BtuCEDFB; monomer; TLS groups span residues 5 to 704
T2 sequence (A0A3A8HCN5 1-645 W271A): T1 sequence (A0A3A8HCN5 1-645)
Description: LC-MS product quantification. The test is classed as biochemical. Conditions: 500 µM SAM, 2 mM Ti(III) citrate, pH 7.5, room temperature.

The target of test [4] is T3, cbCysS (Cystobacter sp. Cbv34, UniProt A0A0H4NV78).
T3 construct: gene cysS; codon-optimised gene in pSUMO, N-terminal SUMO tag cleaved with Ulp1; E. coli BL21(DE3) with pDB1282 and pBAD42-BtuCEDFB; monomer
T3 sequence (A0A0H4NV78 1-642): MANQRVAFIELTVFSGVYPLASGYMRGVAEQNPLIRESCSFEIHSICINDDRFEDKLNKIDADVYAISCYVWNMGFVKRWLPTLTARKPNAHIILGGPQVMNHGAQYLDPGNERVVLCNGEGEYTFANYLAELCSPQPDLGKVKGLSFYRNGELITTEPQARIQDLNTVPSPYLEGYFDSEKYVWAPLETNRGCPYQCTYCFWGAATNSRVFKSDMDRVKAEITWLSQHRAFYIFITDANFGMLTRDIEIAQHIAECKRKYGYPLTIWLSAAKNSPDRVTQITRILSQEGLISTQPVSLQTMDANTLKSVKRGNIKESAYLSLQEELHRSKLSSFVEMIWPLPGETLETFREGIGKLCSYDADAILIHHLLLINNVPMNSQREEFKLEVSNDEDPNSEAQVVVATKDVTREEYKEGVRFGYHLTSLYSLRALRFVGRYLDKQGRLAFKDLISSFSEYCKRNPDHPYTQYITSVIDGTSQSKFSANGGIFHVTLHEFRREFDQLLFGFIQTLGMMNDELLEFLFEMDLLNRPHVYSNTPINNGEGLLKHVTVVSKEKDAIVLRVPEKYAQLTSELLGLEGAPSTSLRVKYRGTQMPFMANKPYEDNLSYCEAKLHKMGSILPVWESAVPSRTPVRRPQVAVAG
Description: LC-MS product quantification. Conditions: 500 µM SAM, 2 mM Ti(III) citrate, pH 7.5, room temperature. The test is classed as biochemical.

Test [5] concerns the target T1, ccCysS. Description: LC-MS product quantification. The test is classed as biochemical. The note with it: 500 µM SAM, 2 mM Ti(III) citrate, pH 7.5, room temperature.
The target in test [6] is T4, ccCysS (Corallococcus sp. CA054B, UniProt A0A3A8HCN5, F485L).
T4 construct: gene D7V80_23740; codon-optimised gene in pSUMO, N-terminal SUMO tag cleaved with Ulp1; E. coli BL21(DE3) with pDB1282 and pBAD42-BtuCEDFB; monomer; TLS groups span residues 5 to 704
T4 sequence (A0A3A8HCN5 1-645 F485L): T1 sequence (A0A3A8HCN5 1-645)
Description: LC-MS product quantification. Format: biochemical. The note with it: 500 µM SAM, 2 mM Ti(III) citrate, pH 7.5, room temperature.

The target in test [7] is T5, ccCysS (Corallococcus sp. CA054B, UniProt A0A3A8HCN5, F485W).
T5 construct: gene D7V80_23740; codon-optimised gene in pSUMO, N-terminal SUMO tag cleaved with Ulp1; E. coli BL21(DE3) with pDB1282 and pBAD42-BtuCEDFB; monomer; TLS groups span residues 5 to 704
T5 sequence (A0A3A8HCN5 1-645 F485W): T1 sequence (A0A3A8HCN5 1-645)
Description: LC-MS product quantification. The test is classed as biochemical. Conditions: 500 µM SAM, 2 mM Ti(III) citrate, pH 7.5, room temperature.

In test [8] the target is T6, ccCysS (Corallococcus sp. CA054B, UniProt A0A3A8HCN5, F485Y).
T6 construct: gene D7V80_23740; codon-optimised gene in pSUMO, N-terminal SUMO tag cleaved with Ulp1; E. coli BL21(DE3) with pDB1282 and pBAD42-BtuCEDFB; monomer; TLS groups span residues 5 to 704
T6 sequence (A0A3A8HCN5 1-645 F485Y): T1 sequence (A0A3A8HCN5 1-645)
Description: LC-MS product quantification. The note with it: 500 µM SAM, 2 mM Ti(III) citrate, pH 7.5, room temperature. The test is classed as biochemical.

For `CCOc1cc(C(=O)OCCNC(=O)CCNC(=O)[C@H](O)C(C)(C)CO)ccc1N` [OEt, OEt substrate], the “X-ray crystal structure, 2.00 Å” value in test [1] is “Structures with the OMe or OEt substrates have well-defined substrate electron densities”.
For `COc1cc(C(=O)OCCNC(=O)CCNC(=O)[C@H](O)C(C)(C)CO)ccc1N` [OMe, OMe substrate], the “X-ray crystal structure, 1.75 Å” value in test [2] is listed as “Structures with the OMe or OEt substrates have well-defined substrate electron densities”. Moreover, the LC-MS product quantification result in test [3] is “changed to Ala, the variant shows much lower activity across all three methylations”; in test [4], “In reactions using the OMe substrate, only the OEt and O^iPr products are detected”.
Take `CC(C)Oc1cc(C(=O)OCCNC(=O)CCNC(=O)[C@H](O)C(C)(C)CO)ccc1N` [OiPr, O^iPr substrate]: the LC-MS product quantification result is “The O^sBu and O^tBu products are observed only when starting from the O^iPr substrate” in test [5]; “The F485L variant, less bulky than wild-type (WT) ccCysS, produces methylated products in roughly equal amounts” in test [6]; “F485Y and F485W yield fewer overall methylated products” in test [7]; “F485Y and F485W yield fewer overall methylated products” in test [8]; “The O^sBu and O^tBu products are observed only when starting from the O^iPr substrate” in test [4].
